{"source": "patent US5886011A", "about": "“Piperidine derivatives as substance P antagonists” (Hisamitsu Pharmaceutical Co., Inc., priority 1995, dated 1999)", "key": {"[1]": {"biological_target": "T1, Substance P receptor (guinea pig ileum longitudinal muscle) (Cavia porcellus, UniProt P30547)", "T1 construct": "ileum was removed and the longitudinal muscle was stripped off; from tissue; host or cells: guinea pig ileum longitudinal muscle, washed membrane pellets", "T1 sequence (P30547 whole entry)": "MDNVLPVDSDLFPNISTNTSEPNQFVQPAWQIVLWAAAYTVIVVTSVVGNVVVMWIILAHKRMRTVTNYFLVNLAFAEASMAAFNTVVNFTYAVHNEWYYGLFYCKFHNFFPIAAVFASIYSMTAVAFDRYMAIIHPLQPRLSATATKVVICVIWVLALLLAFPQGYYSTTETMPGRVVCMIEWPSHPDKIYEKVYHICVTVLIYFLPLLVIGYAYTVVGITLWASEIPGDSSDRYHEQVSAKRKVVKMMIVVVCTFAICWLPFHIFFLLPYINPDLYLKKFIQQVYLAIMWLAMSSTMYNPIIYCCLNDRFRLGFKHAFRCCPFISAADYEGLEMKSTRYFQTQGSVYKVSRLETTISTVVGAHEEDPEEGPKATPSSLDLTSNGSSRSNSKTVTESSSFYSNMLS", "experiment": "Receptor-binding test ([125I]SP ligand, guinea pig ileum longitudinal muscle receptor samples)", "details": "10^-8 M compound; [125I]SP 50 pM, 22° C., 20 minutes", "description": "To the longitudinal muscles, 20 times of the wet weight of the buffer solution (1) (50 mM tris-HCl buffer solution containing 2 mM MgCl2 and 0.1 mM phenyl methyl sulfonyl-fluoride, pH 7.4) was added. The mixture was homogenized under ice-cooling and centrifuged at 48,000×G for 15 minutes. After removing the supernatant, the pellets were re-suspended in the buffer solution (1) and centrifuged at 48,000×G for 15 minutes. The buffer solution (2) (50 mM tris.HCl buffer solution containing 10 mM ethylenediaminetetraacetic acid and 300 mM KCl, pH 7.4) was added to the pellets and suspended to be reacted under ice-cooling for 60 minutes. The resulted reaction materials were centrifuged at 48,000×G for 15 minutes. After suspending the pellets in the buffer solution (1) and distributing, the mixture were centrifuged at 48,000×G for 15 minutes. The pellets were stored at -80° C. until used as receptor samples.\nThus obtained receptor samples were suspended in 50 mM tris-HCl buffer solution to be used. As the buffer solution, binding buffer solution (tris.HCl buffer solution containing 0.02% bovine serum albumin, 40 μg/ml bacitracin, 4 μg/ml chymostatin, 4 μg/ml leupeptin and 3 mM MnCl2, pH7.4) was used."}, "[2]": {"test_system": "Substance P (guinea pig ileum)", "experiment": "Bioassay test: Substance P-induced contraction of guinea pig ileum strips", "details": "10^-7 M compound; contraction by 10^-8 M Substance P regarded as 100%", "description": "B. Bioassay Test […] After exsanguinating guinea pigs (body weight: 500-600 g) deadly, ileum was removed and 2 cm of ileum strips were prepared. In a Tyrode's solution (10 ml, 37° C.) in which air is passed, containing 5.2 μM atropine and 4.1 μM indomethacin, the strips having 0.5 g resting tension was suspended, and contractions of muscle were recorded on a recording device (RTA-1200, manufactured by Nihon Kohden) via an isotonic transducer (TB-612T, manufactured by Nihon Kohden). Using three specimens per one group, effects of the subject drugs on the muscle contraction caused by 10^-8 M Substance P were determined."}, "[3]": {"test_system": "Substance P", "experiment": "Antagonism test on Substance P-induced airway edema", "format": "in vivo, guinea pig (hartley male)", "details": "Cavia porcellus, po, compared to the control group, read-out: Inhibition Rate (airway edema, dye transudated into trachea and main bronchi); for inhibition in vivo at 1 mg/kg: 1 mg/kg orally, thirty minutes before induction", "description": "C. Antagonism Test on Substance P-induced Airway Edema\n20 mg/kg of Evans' Blue and 1 nm/kg Substance P containing 200 I.U./kg of heparin were administered intravenously to hartley male guinea pigs in order to induce airway edema. After ten minutes, the guinea pigs were exsanguinated deadly. The amounts of the dye transudated into trachea and main bronchi were determined. 1 mg/kg of the subject compounds were administered orally at thirty minutes before the induction. […] Further, for comparison, the following compounds A and B were used."}, "[4]": {"test_system": "cisplatin-induced emesis", "experiment": "Anti-emetic effect against cisplatin-induced emesis", "format": "in vivo, ferret (male)", "description": "D. Anti-emetic Effect against Cisplatin-induced Emesis\nThe test was carried out using male ferret (approx. 1.5 kg.). Emesis was induced by intraperitoneal administration of cisplatin (10 mg/kg). 1 mg/kg of the subject compounds were administered orally just after the cisplatin administration. The results will be shown in Table 3 as the inhibition rates compared to the control group, using the number of vomits as indexes. Further, for comparisons, the following compounds A and C were used."}, "[5]": {"test_system": "SD rats", "experiment": "Toxicity test, seven days", "format": "in vivo, rat (male SD)", "details": "3, 10 and 30 mg/kg, male SD rats", "description": "3, 10 and 30 mg/kg of the compound of Example 46 are administered to five male SD rats per one group for seven days. The compound had no influence on body weights gains, organ weights, numbers of erythrocytes nor numbers of leukocytes."}, "[6]": {"details": "1 mg/kg orally just after cisplatin (10 mg/kg i.p.), compared to the control group"}}, "data": [{"compound": "Cl.FC(F)(F)Oc1cc2c(c(CN[C@H]3CCCN[C@H]3c3ccccc3)c1)OCC2", "note": "[Example 53, (2S,3S)-3-[(5-trifluoromethoxy-2,3-dihydrobenzofuran-7-yl)methyl]amino-2-phenylpiperidine hydrochloride]", "values": [{"measurement": "inhibition at 0.01 µM", "setting": "[1]", "value": 53.5, "unit": "%"}, {"measurement": "Contriction Inhibition", "setting": "[2]", "value": 69.3, "unit": "%"}, {"measurement": "inhibition in vivo at 1 mg/kg", "setting": "[3]", "value": 69, "unit": "%"}, {"measurement": "Inhibition Rate (number of vomits)", "setting": "[4]; [6]", "value": 65, "unit": "%"}]}, {"compound": "CSc1cc2c(c(CN[C@H]3CCCN[C@H]3c3ccccc3)c1)OCC2.Cl", "note": "[Example 46, (2S,3S)-3-[(5-methylthio-2,3-dihydrobenzofuran-7-yl)methyl]amino-2-phenylpiperidine hydrochloride]", "values": [{"measurement": "inhibition at 0.01 µM", "setting": "[1]", "value": 65.3, "unit": "%"}, {"measurement": "Contriction Inhibition", "setting": "[2]", "value": 72.3, "unit": "%"}, {"measurement": "inhibition in vivo at 1 mg/kg", "setting": "[3]", "value": 72, "unit": "%"}, {"measurement": "Inhibition Rate (number of vomits)", "setting": "[4]; [6]", "value": 60, "unit": "%"}, {"measurement": "influence on body weights gains", "setting": "[5]", "value": "no influence"}, {"measurement": "influence on numbers of erythrocytes", "setting": "[5]", "value": "no influence"}, {"measurement": "influence on numbers of leukocytes", "setting": "[5]", "value": "no influence"}, {"measurement": "influence on organ weights", "setting": "[5]", "value": "no influence"}]}, {"compound": "Cl.c1ccc([C@@H]2NCCC[C@@H]2NCc2cc(C3CCCC3)cc3c2OCC3)cc1", "note": "[Example 25, (2S,3S)-3-[(5-cyclopentyl-2,3-dihydrobenzofuran-7-yl)methyl]amino-2-phenylpiperidine hydrochloride]", "values": [{"measurement": "inhibition at 0.01 µM", "setting": "[1]", "value": 89.2, "unit": "%"}, {"measurement": "Contriction Inhibition", "setting": "[2]", "value": 85.1, "unit": "%"}, {"measurement": "inhibition in vivo at 1 mg/kg", "setting": "[3]", "value": 90, "unit": "%"}, {"measurement": "Inhibition Rate (number of vomits)", "setting": "[4]; [6]", "value": 73, "unit": "%"}]}, {"compound": "CC(C)c1cc2c(c(CN[C@H]3CCCN[C@H]3c3ccccc3)c1)OCC2.Cl", "note": "[Example 23, (2S,3S)-3-[(5-isopropyl-2,3-dihydrobenzofuran-7-yl)methyl]amino-2-phenylpiperidine hydrochloride]", "values": [{"measurement": "inhibition at 0.01 µM", "setting": "[1]", "value": 83.2, "unit": "%"}, {"measurement": "Contriction Inhibition", "setting": "[2]", "value": 80.3, "unit": "%"}, {"measurement": "inhibition in vivo at 1 mg/kg", "setting": "[3]", "value": 89, "unit": "%"}, {"measurement": "Inhibition Rate (number of vomits)", "setting": "[4]; [6]", "value": 70, "unit": "%"}]}, {"compound": "COc1ccccc1CN[C@H]1CCCN[C@H]1c1ccccc1.Cl", "note": "[Compound A, (2S,3S)-3-(2-methoxybenzyl)amino-2-phenylpiperidine hydrochloride, reference compound]", "values": [{"measurement": "inhibition in vivo at 10 mg/kg", "setting": "[3]; 10 mg/kg (comparison compound), orally", "value": 12, "unit": "%"}, {"measurement": "Inhibition Rate (number of vomits)", "setting": "[4]; 10 mg/kg (comparison compound), orally just after cisplatin (10 mg/kg i.p.)", "value": 19, "unit": "%"}]}]}
